The values below come from ChEMBL document CHEMBL3046925, “,-Dibromoacetophenones mediated synthesis of some new 7H-7-alkoxy-3-alkyl/phenyl-6-aryl-s-triazolo[3,4-b][1,3,4]thiadiazines and their antimicrobial evaluation” (2012).

Experiment [1] concerns Staphylococcus aureus. The experiment can be described thus: Antimicrobial activity against Staphylococcus aureus MTCC 96 after 24 hr by two-fold serial dilution method. It is filed as functional. To be noted: MTCC 96, 24 h.
Experiment [2] relates to Pseudomonas aeruginosa. The experiment can be described thus: Antimicrobial activity against Pseudomonas aeruginosa MTCC 741 at 2 mg/ml after 24 hr by agar well diffusion method. The experiment is classed as functional, organism-based. Background: Agar diffusion results depend on both activity and mobility in agar.
Experiment [3] relates to Candida albicans. As to the kind of experiment: Antimicrobial activity against Candida albicans MTCC 227 at 2 mg/ml by two-fold serial dilution method. It is filed as functional.
Experiment [4] relates to Staphylococcus aureus. The experiment can be described thus: Antimicrobial activity against Staphylococcus aureus MTCC 96 at 2 mg/ml after 24 hr by agar well diffusion method. It is filed as functional. Conditions: MTCC 96, 24 h, read-out: DIZ.
Experiment [5] relates to Saccharomyces cerevisiae. The experiment can be described thus: Antimicrobial activity against Saccharomyces cerevisiae MTCC 170 after 24 hr by two-fold serial dilution method. The experiment is classed as functional.
The test system of experiment [6] is Bacillus subtilis. As to the kind of experiment: microbe, parasite or virus in culture. It is filed as functional. To be noted: MTCC 121, 24 h.
Description: Antimicrobial activity against Bacillus subtilis MTCC 121 at 2 mg/ml after 24 hr by two-fold serial dilution method
Experiment [7] concerns Escherichia coli. As to the kind of experiment: Antimicrobial activity against Escherichia coli MTCC 1652 at 2 mg/ml after 24 hr by agar well diffusion method. The experiment is classed as functional, organism-based.
In experiment [8] the test system is Saccharomyces cerevisiae. As to the kind of experiment: Antimicrobial activity against Saccharomyces cerevisiae MTCC 170 at 2 mg/ml after 24 hr by agar well diffusion method. To be noted: for zone of inhibition at 2000 µg/mL: MTCC 170, 24 h, read-out: DIZ. The experiment is classed as functional.
Experiment [9] deals with Bacillus subtilis. As to the kind of experiment: microbe, parasite or virus in culture. The experiment is classed as functional. Conditions: MTCC 121, 24 h, read-out: DIZ.
Description: Antimicrobial activity against Bacillus subtilis MTCC 121 at 2 mg/ml after 24 hr by agar well diffusion method
The test system of experiment [10] is Candida albicans. As to the kind of experiment: Antimicrobial activity against Candida albicans MTCC 227 at 2 mg/ml by agar well diffusion method. It is filed as functional. To be noted: for zone of inhibition at 2000 µg/mL: read-out: DIZ.

Converted amounts (≈) assume the structure as drawn. The source made the active and inactive calls. No cut-off for these calls is given here. Some results are limits rather than exact numbers.

For the compound `CCc1nnc2n1N=C(c1ccc(Cl)cc1)C(OC(C)C)S2` (centres undefined), the MIC was greater than 256 µg/mL in [1]; greater than 256 µg/mL in [5] (MTCC 170, 24 h); greater than 256 µg/mL in experiment [6]. Besides, the result in experiment [2] and in experiment [7] was inactive. The MIC entry in experiment [3] was “inactive”. The figures for the zone of inhibition at 2000 µg/mL in experiment [4], in experiment [8] and in experiment [9] were 11.3 mm, 11.3 mm and 12.3 mm, respectively. The “diameter of the inhibition zone (DIZ)” value in experiment [10] is “inactive”.
Turning to `CCCOC1Sc2nnc(CCC)n2N=C1c1ccccc1` (centres undefined), the MIC in experiment [1] is 256 µg/mL (≈ 809 µM); in experiment [5] (MTCC 170, 24 h) it was 64 µg/mL (≈ 202 µM); in [6], 128 µg/mL (≈ 405 µM). The outcome in experiment [2] and in experiment [7] was inactive. The MIC result in [3] was “inactive”. The figures for the zone of inhibition at 2000 µg/mL in experiment [4], in experiment [8] and in experiment [9] were 13.6 mm, 15.3 mm and 16.3 mm, respectively. Further, in experiment [10], the “diameter of the inhibition zone (DIZ)” value is “inactive”.
For `CCCc1nnc2n1N=C(c1ccccc1)C(OC(C)C)S2` (centres undefined), the MIC was greater than 256 µg/mL in [1] and 256 µg/mL (≈ 809 µM) in experiment [6]. Besides, the result in experiment [2] and in experiment [7] was inactive. The MIC entry in experiment [3] and in experiment [5] was “inactive” in each case. Also, the zone of inhibition at 2000 µg/mL in [4] came out at 12.3 mm; in experiment [9] it was 14.6 mm. Also, the “diameter of the inhibition zone (DIZ)” value in [8] and in [10] was “inactive” in each case.
In the case of `COC1Sc2nncn2N=C1c1ccccc1` (centres undefined), the MIC in [1] came out at 64 µg/mL (≈ 260 µM); in experiment [3], 128 µg/mL (≈ 520 µM); in experiment [5] (MTCC 170, 24 h), 128 µg/mL (≈ 520 µM); in experiment [6], 64 µg/mL (≈ 260 µM). In addition, the result in experiment [2] and in experiment [7] was inactive. Moreover, the zone of inhibition at 2000 µg/mL in [4] came out at 19.6 mm; in [8], 13.6 mm; in [9], 18.6 mm; in experiment [10], 13.3 mm.
Regarding `CCCOC1Sc2nncn2N=C1c1ccccc1` (centres undefined), the MIC in [1] was determined as 128 µg/mL (≈ 467 µM); in experiment [6], 64 µg/mL (≈ 233 µM). The result in experiment [2] and in [7] was inactive. Moreover, the MIC result in experiment [3] and in experiment [5] was “inactive” throughout. The results for the zone of inhibition at 2000 µg/mL in experiment [4] and in experiment [9] were 15.6 mm and 18.3 mm, respectively. The “diameter of the inhibition zone (DIZ)” value in experiment [8] and in experiment [10] was “inactive” in each case.
As for `CCOC1Sc2nnc(CC)n2N=C1c1ccc(Br)cc1` (centres undefined), the MIC in experiment [1] was greater than 256 µg/mL; in [6] it was 256 µg/mL (≈ 697 µM). Further, the outcome in [2] and in [7] was inactive. Besides, the MIC entry in experiment [3] and in experiment [5] was “inactive” each time. Also, the figures for the zone of inhibition at 2000 µg/mL in experiment [4] and in experiment [9] were 12.3 mm and 13.6 mm, respectively. Besides, the “diameter of the inhibition zone (DIZ)” value in experiment [8] and in [10] was “inactive” each time.
For the compound `CCOC1Sc2nnc(CC)n2N=C1c1ccc(C)cc1` (centres undefined), the MIC in experiment [1] is greater than 256 µg/mL; in [5] (MTCC 170, 24 h) it was greater than 256 µg/mL; in experiment [6], 128 µg/mL (≈ 423 µM). The result in experiment [2] and in [7] was inactive. Moreover, in experiment [3], the MIC result was “inactive”. The zone of inhibition at 2000 µg/mL in experiment [4] came to 12.3 mm; in experiment [8] it was 10.6 mm; in experiment [9] it was 17 mm. In [10], the “diameter of the inhibition zone (DIZ)” value was “inactive”.
On to `CCc1nnc2n1N=C(c1ccccc1)C(OC(C)C)S2` (centres undefined), for which the MIC was 256 µg/mL (≈ 847 µM) in experiment [1] and greater than 256 µg/mL in [6]. Moreover, the outcome in experiment [2] and in experiment [7] was inactive. The MIC entry in experiment [3] and in [5] was “inactive” throughout. In addition, the figures for the zone of inhibition at 2000 µg/mL in experiment [4] and in [9] were 13.6 mm and 12.3 mm, respectively. In addition, the “diameter of the inhibition zone (DIZ)” value in [8] and in [10] was “inactive” each time.
On to `C[C@@H]1[C@H](O)[C@@H](C)/C=C/C=C/C=C/C=C/C=C/C=C/C=C/[C@H](O[C@@H]2O[C@H](C)[C@@H](O)[C@H](N)[C@@H]2O)C[C@@H]2O[C@](O)(C[C@@H](O)C[C@@H](O)[C@H](O)CC[C@@H](O)C[C@@H](O)CC(=O)O[C@H]1C)C[C@H](O)[C@H]2C(=O)O` [AMPHOTERICIN B], for which the MIC in experiment [3] stood at 100 µg/mL (≈ 108 µM); in experiment [5] (MTCC 170, 24 h) it was 100 µg/mL (≈ 108 µM). For the same compound, the figures for the zone of inhibition at 2000 µg/mL in [8] and in experiment [10] were 13.6 mm and 14.3 mm, respectively.
For `CCCOC1Sc2nnc(CC)n2N=C1c1ccc(Cl)cc1` (centres undefined), the MIC was greater than 256 µg/mL in [1]; greater than 256 µg/mL in [5] (MTCC 170, 24 h); 128 µg/mL (≈ 380 µM) in experiment [6]. Moreover, the result in experiment [2] and in experiment [7] was inactive. In experiment [3], the MIC entry is “inactive”. For the same compound, the zone of inhibition at 2000 µg/mL in [4] was 12.6 mm; in [8] it was 10.3 mm; in experiment [9], 16.3 mm. Further, in experiment [10], the “diameter of the inhibition zone (DIZ)” value was “inactive”.
